Columns and labels:
[1] = system: dwarf rice Oryza satina var. Tan-ginbozu; assay: rice leaf lamina inclination bioassay; assay type: in vivo
Protocol: Mimetics 3-12, along with brassinolide for comparison, were subjected to the rice leaf lamina inclination bioassay^30. This technique is a rapid, highly sensitive and convenient means for detecting and measuring brassinosteroid bioactivity. Strongly active brassinosteroids such as brassinolide can be readily detected at doses as low as 1 ng/plant. The assay is based on the downward movement response of the second leaf lamina angle of rice seedlings to the application of active brassinosteroids. Thus, a decrease in the leaf angle occurs from about 160 degrees (i.e. nearly upright) in control plants to angles of less than 90 degrees when a strong response is measured. A plot of leaf lamina angle vs. the logarithm of the dose in ng provides a convenient indication of bioactivity.
Brassinosteroids show synergy with auxins such as indole-3-acetic acid (IAA) in this bioassay^7,30,31. Thus, co-application of a given dose of the brassinosteroid with IAA generally elicits a similar decrease in the leaf lamina angle as would be observed with a dose one or two orders of magnitude higher of the brassinosteroid alone. […] The bioassays of mimetics 3-12 were therefore run both in the presence and absence of 1000 ng of added IAA and mimetic 11 was also bioassayed in the presence of 5000 ng of IAA.
Mimetics 3-12, along with brassinolide as a standard, were tested for biological activity by means of the rice leaf lamina assay, using a dwarf rice Oryza satina var. Tan-ginbozu, as described^30. The compounds were dissolved in 95% ethanol, except for mimetic 11 where DMSO was used due to poor solubility in ethanol. To a solution of mimetic 11 in 50 microliters of DMSO was added 550 microliters of a 2.5% aqueous solution of Atlas®, an ICI formulating material, to improve uptake. The test solutions were then applied as 0.5 μl microdrops to the rice plants 48 h after planting the germinated seeds on 0.8% water agar. At high doses, several rounds of application of the 0.5 μl microdrops were required to attain the desired dose per plant. Where IAA was a co-treatment, 1,000 or 5,000 ng of IAA was similarly applied per plant ca. 2 h prior to the application of brassinolide and mimetics 3-12. The resultant leaf lamina angle was measured 60-65 h later. For an individual bioassay, each data point is the mean of the leaf angles from ca. 36 plants for doses up to 100 ng and from ca. 24 plants for the 1000 and 10,000 ng doses. Parallel control applications of solvent and IAA (1000 ng) were also carried out. […] Similarly, the results for brassinolide plus IAA, which were reported earlier,^14,16,17a are not shown here for purposes of clarity.

solubility in ethanol = assay type: physicochemical
[2] = system: dwarf rice Oryza satina var. Tan-ginbozu; details: in vivo; cited from earlier work
rice, beans and others = details: applied exogenously; cited from earlier work
[3] = applied together with IAA in 95% ethanol
[4] = all dosage levels, with or without IAA application

SMILES: Oc1ccc(C=Cc2ccc(O)c3c2CC(O)C(O)C3)c2c1CC(O)C(O)C2 (mixture of isomers) [Mimetic 6, (E)-(±)-1,2-Bis[4,6α,7α-trihydroxy-5,6,7,8-tetrahydronaphthyl]ethene and its Meso Isomer]
- bioactivity in the rice leaf lamina inclination assay [1, 3]: significant bioactivity
- dose that produced a significant bioassay response [1, 3]: 10000 ng

SMILES: O=C1CC=C(C#CC2=CCC(=O)C3CC(O)C(O)CC23)C2CC(O)C(O)CC12 (mixture of isomers) [Mimetic 10, (±)-1,2-Bis[trans-(4aα,8aβ)-4-oxo-6α,7α-dihydroxy-4a,5,6,7,8,8a-hexahydro-(3H)-naphthyl]ethyne and its Meso Isomer]
- bioactivity in the rice leaf lamina inclination assay [1, 4]: devoid of activity

SMILES: O=C1CC=C(C=CC2=CCC(=O)C3CC(O)C(O)CC23)C2CC(O)C(O)CC12 (mixture of isomers) [Mimetic 11, (E)-1,2-Bis[trans-(4aα,8aβ)-4-oxo-6α,7α-dihydroxy-4a,5,6,7,8,8a-hexahydro-(3H)-naphthyl]ethene and its Meso Isomer]
- bioactivity in the rice leaf lamina inclination assay ([1]; IAA increased to 5000 ng, DMSO diluted with 2.5% aqueous Atlas, compared with 1000 ng IAA): even further enhanced
- bioactivity in the rice leaf lamina inclination assay ([1]; applied together with 1000 ng of IAA, DMSO diluted with 2.5% aqueous Atlas): active across a wide range of doses
- dose at which significant activity is displayed ([1]; with 5000 ng of IAA, DMSO/Atlas): 0.01 ng
- solubility in ethanol (solubility in ethanol): poor

SMILES: Oc1cc(C#Cc2ccc3c(c2)CC(O)C(O)C3)cc2c1CC(O)C(O)C2 (racemic) [Mimetic 4, (±)-1-[4,6α,7α-Trihydroxy-5,6,7,8-tetrahydronaphthyl]-2-[6α′,7α∝-dihydroxy-5′,6′,7′,8′-tetrahydronaphthyl]ethyne as Two (±) Pairs]
- bioactivity in the rice leaf lamina inclination assay [1, 3]: modest, but statistically significant activity

SMILES: Oc1ccc(C#Cc2ccc(O)c3c2CC(O)C(O)C3)c2c1CC(O)C(O)C2 (single isomer, unassigned) [Mimetic 3, (±)-1,2-Bis[4,6α,7α-trihydroxy-5,6,7,8-tetrahydronaphthyl]ethyne and its Meso Isomer]
- bioactivity in the rice leaf lamina inclination assay [1, 3]: modest, but statistically significant activity
- dose that produced a significant bioassay response [1, 3]: 10,000 ng

SMILES: OC1Cc2ccc(C#Cc3ccc4c(c3)CC(O)C(O)C4)cc2CC1O (single isomer, unassigned) [Mimetic 5, (±)-1,2-Bis[6α,7α-dihydroxy-5,6,7,8-tetrahydronaphthyl]ethyne and its Meso Isomer]
- bioactivity in the rice leaf lamina inclination assay [1, 4]: completely inactive

SMILES: OC1Cc2ccc(/C=C/c3ccc4c(c3)CC(O)C(O)C4)cc2CC1O (single isomer, unassigned) [Mimetic 7, (E)-(±)-1,2-Bis[6α,7α-dihydroxy-5,6,7,8-tetrahydronaphthyl]ethene and its Meso Isomer]
- bioactivity in the rice leaf lamina inclination assay [1, 4]: completely inactive

SMILES: Oc1ccc(CCc2ccc(O)c3c2CC(O)C(O)C3)c2c1CC(O)C(O)C2 (single isomer, unassigned) [Mimetic 8, (±)-1,2-Bis[4,6α,7α-trihydroxy-5,6,7,8-tetrahydronaphthyl]ethane and its Meso Isomer]
- bioactivity in the rice leaf lamina inclination assay [1, 4]: no bioactivity

SMILES: O=C1CCC(=NN=C2CCC(=O)C3CC(O)C(O)CC23)C2CC(O)C(O)CC12 (single isomer, unassigned) [Mimetic 12, 6,7-Dihydroxy-2,3,4a,5,6,7,8,8a-octahydro-4-oxo-naphthalenone Azine (Mixture of Isomers)]
- bioactivity in the rice leaf lamina inclination assay [1, 4]: devoid of activity

SMILES: O=C(O)Cc1c[nH]c2ccccc12 [IAA, indole-3-acetic acid, reference compound]
- effect in the bioassay ([1]; applied on its own): without significant effect

SMILES: Oc1cc2c(O)ccc(CCc3ccc(O)c4cc(O)c(O)cc34)c2cc1O [Mimetic 9, 1,2-Bis(4,6,7-trihydroxynaphthyl)ethane]
- bioactivity in the rice leaf lamina inclination assay [1, 4]: no bioactivity

SMILES: CC(C)[C@H](C)[C@@H](O)[C@H](O)[C@@H](C)[C@H]1CC[C@H]2[C@@H]3COC(=O)[C@H]4C[C@H](O)[C@H](O)C[C@]4(C)[C@H]3CC[C@]12C [brassinolide, (22R, 23R, 24S)-2α,3α,22,23-tetrahydroxy-24-methyl-B-homo-7-oxa-5α-cholestan-6-one]
- dose as low as which readily detected [2]: 1 ng/plant
- dose as low as which biological activity is manifested (rice, beans and others): one
